US20230374076A1, “THE PREPARATION OF CERAMIDE CONJUGATES AND DERIVATIVES OF SP[…]” (KODE BIOTECH LIMITED, priority 2017, published 2023)

Test system: red blood cells
Assay: Incorporation of the ceramide conjugate into red blood cell membranes, fluorescence scored after labelling with Avidin Alexa Fluor 488
Format: cell-based
Method: A 50 μL volume of packed red blood cells was re-suspended in an equal volume of a dispersion in phosphate buffered saline (PBS) (pH 7.2) of the ceramide conjugate (X). The re-suspended cells were incubated at 37° C. for two hours and then washed once with PBS. The modified cells were diluted with PBS to provide a suspension at a concentration equivalent to 5% of the packed cell volume. A 30 μL volume of the diluted suspension was then mixed with an equal volume of a 0.1 mg/mL solution of Avidin Alexa Flour™ 488 in PBS. The mixture was incubated at room temperature for 30 minutes before washing and re-suspending the modified cells in PBS. The fluorescence of cells in a 5 μL volume was observed using a microscope (Olympus BX51) at 400 x magnification.
The modified cells prepared using dispersions of the ceramide conjugate (X) at different concentrations (0 (control), 0.5, 5 and 50 μM) were scored.

ceramide-β-Ala-CMG(2)-biot [ceramide conjugate (X)]
Incorporation into cell membranes (fluorescent labelling of the modified cells): spontaneously incorporated into cell membranes
